Like-named read-outs stand apart in the source and are kept apart here.
Experiments:
[1] = target: T1, SFRP-1 (Homo sapiens, UniProt Q8N474); test: Fluorescence polarization binding assay (competitive displacement of a probe compound from SFRP-1); conditions: fluorescence anisotropy, 45 nM SFRP-1, 20 nM probe;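 note: test compound competes with a fluorescent probe held by SFRP-1, seen as a drop in probe anisotropy after incubation in darkness, with anisotropy as function of rising compound dose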
T1 sequence (Q8N474 32-314): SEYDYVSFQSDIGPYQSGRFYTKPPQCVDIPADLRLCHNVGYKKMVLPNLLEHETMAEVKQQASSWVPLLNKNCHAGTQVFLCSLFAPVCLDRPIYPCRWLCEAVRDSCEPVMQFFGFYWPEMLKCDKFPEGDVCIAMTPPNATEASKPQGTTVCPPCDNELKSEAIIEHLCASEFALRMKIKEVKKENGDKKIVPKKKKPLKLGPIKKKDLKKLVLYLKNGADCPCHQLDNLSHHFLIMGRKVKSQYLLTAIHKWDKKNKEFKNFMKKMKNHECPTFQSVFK

[2] = target: T1, SFRP-1; test: Cell-based assay for in vitro measurement of SFRP-1/SARP2 antagonist activity (U2OS cells co-transfected with 16x TCF-tk-Luciferase reporter, Wnt and hSFRP-1); conditions: for fold induction at 10 µM / fold induction at 15 µM: U2OS; for fold induction at 10 µM: read-out: Fold Induction with SFRP-1, U2OS cells, single dose 10 μM, luciferase reporter, fold induction over SFRP-1 control;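 for all read-outs here: U2OS cells co-transfected with a TCF-tk luciferase reporter, a Wnt vector, hSFRP-1 or empty vector and CMV-βgal, luciferase luminescence read in cell lysates alongside βgal activity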
[3] = read-out: Fold Induction with SFRP-1, Conc 15 μM, with SFRP-1, fold induction over SFRP-1 control, single dose
[4] = read-out: Fold Induction without SFRP-1, Conc 15 μM, without SFRP-1, single dose
[5] = read-out: Fold Induction with SFRP-1, Conc 15 μM, single dose, luciferase reporter, fold induction over SFRP-1 control, cells with SFRP-1
[6] = read-out: Fold Induction without SFRP-1, Conc 15 μM, single dose, luciferase reporter, cells without SFRP-1 (specificity control)

| Structure (SMILES) | IC50 [1] | EC50 [2] | fold induction at 10 µM [2] | fold induction at 15 µM [2, 3] | fold induction at 15 µM [2, 4] | fold induction at 15 µM [2, 5] | fold induction at 15 µM [2, 6] |
| --- | --- | --- | --- | --- | --- | --- | --- |
| CN(CCO)CCNS(=O)(=O)c1cc(S(=O)(=O)c2ccccc2)ccc1C(F)(F)F [Example 905, N-{2-[(2-hydroxyethyl)(methyl)amino]ethyl}-5-(phenylsulfonyl)-2-(trifluoromethyl)benzenesulfonamide] | 2600 nM | 3660 nM | 1.5 | – | – | – | – |
| CS(=O)(=O)N1CCC[C@H]1C(=O)N1CCC(NS(=O)(=O)c2cc(S(=O)(=O)c3ccccc3)ccc2C(F)(F)F)CC1 [Example 1075, N-{1-[1-(methylsulfonyl)-L-prolyl]piperidin-4-yl}-5-(phenylsulfonyl)-2-(trifluoromethyl)benzenesulfonamide] | 30 nM | 114 nM | – | – | – | – | – |
| O=S(=O)(NC1CCN(Cc2nn[nH]n2)CC1)c1cc(S(=O)(=O)c2ccccc2)ccc1C(F)(F)F [Example 885, 5-(phenylsulfonyl)-N-[1-(2H-tetrazol-5-ylmethyl)piperidin-4-yl]-2-(trifluoromethyl)benzenesulfonamide] | 400 nM | 2090 nM | 2.7 | – | – | – | – |
| CN(CCNS(=O)(=O)c1cc(S(=O)(=O)c2ccccc2)ccc1C(F)(F)F)C(=O)N1CCNCC1 [Example 898, N-methyl-N-[2-({[5-(phenylsulfonyl)-2-(trifluoromethyl)phenyl]sulfonyl}amino)ethyl]piperazine-1-carboxamide] | 1000 nM | 1930 nM | 3.1 | – | – | – | – |
| Cc1cc(C)c(S(=O)(=O)c2ccccc2)cc1S(=O)(=O)NCCC1CCOCC1 [Example 328, 2,4-dimethyl-5-(phenylsulfonyl)-N-(2-tetrahydro-2H-pyran-4-ylethyl)benzenesulfonamide] | 3000 nM | – | – | 2.6 | 1.1 | – | – |
| CCN(CC)C(=O)N(C)CCNS(=O)(=O)c1cc(S(=O)(=O)c2ccccc2)ccc1C(F)(F)F [Example 834, N-{2-[[(diethylamino)carbonyl](methyl)amino]ethyl}-5-(phenylsulfonyl)-2-(trifluoromethyl)benzenesulfonamide] | 400 nM | 1490 nM | 3 | – | – | – | – |
| CC(C)(C)c1ccc(C(=O)N2CCC(NS(=O)(=O)c3cc(S(=O)(=O)c4ccccc4)ccc3C(F)(F)F)CC2)cc1 [Example 718, N-[1-(4-tert-butylbenzoyl)piperidin-4-yl]-5-(phenylsulfonyl)-2-(trifluoromethyl)benzenesulfonamide] | 400 nM | 214 nM | 6.7 | – | – | – | – |
| Cc1ccc(S(=O)(=O)c2ccc(N3CCOCC3)cc2)cc1S(=O)(=O)NCCCn1ccnc1 [Example 313, N-[3-(1H-imidazol-1-yl)propyl]-2-methyl-5-[(4-morpholin-4-ylphenyl)sulfonyl]benzenesulfonamide] | 500 nM | – | – | 1.9 | 1 | – | – |
| CC1(C)CC(NS(=O)(=O)c2cc(S(=O)(=O)c3ccccc3)ccc2C(F)(F)F)CC(C)(C)N1 [Example 948, 5-(phenylsulfonyl)-N-(2,2,6,6-tetramethylpiperidin-4-yl)-2-(trifluoromethyl)benzenesulfonamide] | 6000 nM | 2740 nM | 2.4 | – | – | – | – |
| Cc1ccc(S(=O)(=O)c2ccc(N[C@@H](C)C3CCCCC3)cc2)cc1S(=O)(=O)NCCCn1ccnc1 [Example 371, 5-[(4-{[(1S)-1-cyclohexylethyl]amino}phenyl)sulfonyl]-N-[3-(1H-imidazol-1-yl)propyl]-2-methylbenzenesulfonamide] | 7000 nM | – | – | 1.4 | 0.8 | – | – |
| CCC(O)CNS(=O)(=O)c1cc(S(=O)(=O)c2ccc(F)cc2)ccc1C(C)C (centres unmarked) [Example 738, 5-[(4-fluorophenyl)sulfonyl]-N-(2-hydroxybutyl)-2-isopropylbenzenesulfonamide] | 7000 nM | – | 2.9 | – | – | – | – |
| COc1cccc(C(=O)N2CCC(NS(=O)(=O)c3cc(S(=O)(=O)c4ccccc4)ccc3C)CC2)c1 [Example 463, N-[1-(3-methoxybenzoyl)piperidin-4-yl]-2-methyl-5-(phenylsulfonyl)benzenesulfonamide] | 700 nM | – | – | 2.9 | 1 | – | – |
| CC(C)c1ccc(S(=O)(=O)c2ccc(F)cc2)cc1S(=O)(=O)NC1CCCC1 [Example 523, N-cyclopentyl-5-[(4-fluorophenyl)sulfonyl]-2-isopropylbenzenesulfonamide] | 3000 nM | – | – | – | – | 2.1 | 1 |
| O=S(=O)(NC1CCN(c2ccc(C(F)(F)F)cc2)CC1)c1cc(S(=O)(=O)c2ccccc2)ccc1C(F)(F)F [Example 763, 5-(phenylsulfonyl)-2-(trifluoromethyl)-N-{1-[4-(trifluoromethyl)phenyl]piperidin-4-yl}benzenesulfonamide] | 1700 nM | – | 2.7 | – | – | – | – |
| COc1ccc(C(=O)N(C)CCNS(=O)(=O)c2cc(S(=O)(=O)c3ccccc3)ccc2C(F)(F)F)cc1 [Example 822, 4-Methoxy-N-methyl-N-[2-({[5-(phenylsulfonyl)-2-(trifluoromethyl)phenyl]sulfonyl}amino)ethyl]benzamide] | 200 nM | 1840 nM | 3.4 | – | – | – | – |
| COc1ccccc1C(=O)N1CCC(NS(=O)(=O)c2cc(S(=O)(=O)c3ccccc3)ccc2C(F)(F)F)CC1 [Example 703, N-[1-(2-methoxybenzoyl)piperidin-4-yl]-5-(phenylsulfonyl)-2-(trifluoromethyl)benzenesulfonamide] | 160 nM | 1200 nM | 4.8 | – | – | – | – |
| Cc1cc2cc(S(=O)(=O)c3ccc(C(F)(F)F)c(S(=O)(=O)NC4CCNCC4)c3)ccc2n1C [Example 792, 5-[(1,2-dimethyl-1H-indol-5-yl)sulfonyl]-N-piperidin-4-yl-2-(trifluoromethyl)benzenesulfonamide] | 200 nM | 2290 nM | 1.4 | – | – | – | – |
| CC(C)c1ccc(S(=O)(=O)c2ccccc2)cc1S(=O)(=O)NCCc1cccnc1 [Example 672, 2-isopropyl-5-(phenylsulfonyl)-N-(2-pyridin-3-ylethyl)benzenesulfonamide] | 300 nM | 3120 nM | 4.2 | – | – | – | – |
| O=C(c1ccnc(N2CCCC2)c1)N1CCC(NS(=O)(=O)c2cc(S(=O)(=O)c3ccccc3)ccc2C(F)(F)F)CC1 [Example 1029, 5-(phenylsulfonyl)-N-[1-(2-pyrrolidin-1-ylisonicotinoyl)piperidin-4-yl]-2-(trifluoromethyl)benzenesulfonamide] | 140 nM | 490 nM | – | – | – | – | – |
| NCCCNS(=O)(=O)c1cc(S(=O)(=O)c2ccccc2)ccc1C(F)(F)F [Example 993, N-(3-aminopropyl)-5-(phenylsulfonyl)-2-(trifluoromethyl)benzenesulfonamide] | 1500 nM | 2290 nM | – | – | – | – | – |
| CC(=O)Nc1ccc(C(=O)N2CCC(NS(=O)(=O)c3cc(S(=O)(=O)c4ccccc4)ccc3C(F)(F)F)CC2)cc1 [Example 719, N-(4-{[4-({[5-(phenylsulfonyl)-2-(trifluoromethyl)phenyl]sulfonyl}amino)piperidin-1-yl]carbonyl}phenyl)acetamide] | 200 nM | 441 nM | 2.1 | – | – | – | – |
| CC(C)c1ccc(S(=O)(=O)c2ccc(F)cc2)cc1S(=O)(=O)NCCC1CCCNC1 (centres unmarked) [Example 884, 5-[(4-fluorophenyl)sulfonyl]-2-isopropyl-N-(2-piperidin-3-ylethyl)benzenesulfonamide] | 1600 nM | 3400 nM | 2.7 | – | – | – | – |
| CN(CCNS(=O)(=O)c1cc(S(=O)(=O)c2ccccc2)ccc1C(F)(F)F)C(=O)N1CCCC1 [Example 833, N-methyl-N-[2-({[5-(phenylsulfonyl)-2-(trifluoromethyl)phenyl]sulfonyl}amino)ethyl]pyrrolidine-1-carboxamide] | 400 nM | 1260 nM | 3.4 | – | – | – | – |
| Cc1c(Cl)cccc1S(=O)(=O)c1ccc(C(C)C)c(S(=O)(=O)NCCc2ccccn2)c1 [Example 514, 5-[(3-chloro-2-methylphenyl)sulfonyl]-2-isopropyl-N-(2-pyridin-2-ylethyl)benzenesulfonamide] | 700 nM | – | – | – | – | 2.6 | 1 |
| O=S(=O)(N[C@H]1CC[C@H](O)CC1)c1cc(S(=O)(=O)c2ccccc2)ccc1C(F)(F)F [Example 1013, N-(trans-4-hydroxycyclohexyl)-5-(phenylsulfonyl)-2-(trifluoromethyl)benzenesulfonamide] | 158 nM | 277 nM | – | – | – | – | – |
| CC(C)c1ccc(S(=O)(=O)c2ccc(F)cc2)cc1S(=O)(=O)NC1CCNCC1 [Example 520, 5-[(4-fluorophenyl)sulfonyl]-2-isopropyl-N-piperidin-4-ylbenzenesulfonamide] | 2400 nM | – | – | – | – | 3.3 | 1.1 |
| O=S(=O)(N[C@@H]1CCNC1)c1cc(S(=O)(=O)c2ccccc2)ccc1C(F)(F)F [Example 797, 5-(phenylsulfonyl)-N-[(3R)-pyrrolidin-3-yl]-2-(trifluoromethyl)benzenesulfonamide] | 800 nM | – | 3.5 | – | – | – | – |

Reference: patent publication US20060276464A1, “Diarylsulfone sulfonamides and use thereof” (Wyeth, priority 2005, published 2006)
